# Measured values: PubChem BioAssay AID1963842 (Molecular Pharmacology Branch, DTP, NCI, 2024)
# Tested on: 677734-321-R-J1-PDC complex spheroid viability
# Test: Anticancer human tumor 677734-321-R-J1-PDC patient-derived soft tissue sarcoma cell line growth inhibition [POLQ]
# Conditions: for IC50: curve of first compound; for viability, T/C: stronger effect = lower value
# Outline: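 Three-cell-type spheroids modelling solid tumor plus stroma served as the readout system; POL inhibitors were tested individually and in combination, concentration ranges set by clinical Cmax where known.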
# [1] = second compound 0.0316 µM, first compound 0.0316 µM
# [2] = second compound 0.0316 µM, first compound 0.1 µM
# [3] = second compound 0.0316 µM, first compound 0.316 µM
# [4] = second compound 0.0316 µM, first compound 1 µM
# [5] = second compound 0.0316 µM, first compound 3.16 µM
# [6] = second compound 0.0316 µM, first compound 10 µM
# [7] = second compound 0.1 µM, first compound 0.0316 µM
# [8] = second compound 0.1 µM, first compound 0.1 µM
# [9] = second compound 0.1 µM, first compound 0.316 µM
# [10] = second compound 0.1 µM, first compound 1 µM
# [11] = second compound 0.1 µM, first compound 3.16 µM
# [12] = second compound 0.1 µM, first compound 10 µM
# [13] = second compound 0.316 µM, first compound 0.0316 µM
# [14] = second compound 0.316 µM, first compound 0.1 µM
# [15] = second compound 0.316 µM, first compound 0.316 µM
# [16] = second compound 0.316 µM, first compound 1 µM
# [17] = second compound 0.316 µM, first compound 3.16 µM
# [18] = second compound 0.316 µM, first compound 10 µM
# [19] = second compound 1 µM, first compound 0.0316 µM
# [20] = second compound 1 µM, first compound 0.1 µM
# [21] = second compound 1 µM, first compound 0.316 µM
# [22] = second compound 1 µM, first compound 1 µM
# [23] = second compound 1 µM, first compound 3.16 µM
# [24] = second compound 1 µM, first compound 10 µM
# [25] = second compound 3.16 µM, first compound 0.0316 µM
# [26] = second compound 3.16 µM, first compound 0.1 µM
# [27] = second compound 3.16 µM, first compound 0.316 µM
# [28] = second compound 3.16 µM, first compound 1 µM
# [29] = second compound 3.16 µM, first compound 3.16 µM
# [30] = second compound 3.16 µM, first compound 10 µM
# [31] = second compound 10 µM, first compound 0.0316 µM
# [32] = second compound 10 µM, first compound 0.1 µM
# [33] = second compound 10 µM, first compound 0.316 µM
# [34] = second compound 10 µM, first compound 1 µM
# [35] = second compound 10 µM, first compound 3.16 µM
# [36] = second compound 10 µM, first compound 10 µM
# 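Note: spheroids exposed to compounds for one week.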
# 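Throughout, for viability, T/C: 100% = vehicle DMSO treated spheroids.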
smiles,measurement,setting,value
CC1COCCN1c1cc(C2(O)CC3CCC(C2)O3)c2cnn(-c3ccn[nH]3)c2n1 (stereo not drawn) + Nc1ccc(C#CCN(C(=O)Cc2ncc(C(F)(F)F)cc2C(F)(F)F)c2ccc(F)cc2)nn1,IC50,second compound 0.0316 µM,< 0.0316 µM
same,IC50,second compound 0.1 µM,< 0.0316 µM
same,IC50,second compound 0.316 µM,< 0.0316 µM
same,IC50,second compound 1 µM,< 0.0316 µM
same,IC50,second compound 3.16 µM,< 0.0316 µM
same,IC50,second compound 10 µM,< 0.0316 µM
same,"viability, T/C",[1],36.8%
same,"viability, T/C",[2],20.4%
same,"viability, T/C",[3],7.94%
same,"viability, T/C",[4],7.29%
same,"viability, T/C",[5],8.37%
same,"viability, T/C",[6],6.3%
same,"viability, T/C",[7],48.2%
same,"viability, T/C",[8],15%
same,"viability, T/C",[9],10.1%
same,"viability, T/C",[10],7.88%
same,"viability, T/C",[11],10.1%
same,"viability, T/C",[12],7.23%
same,"viability, T/C",[13],35.1%
same,"viability, T/C",[14],11.7%
same,"viability, T/C",[15],8.93%
same,"viability, T/C",[16],7.29%
same,"viability, T/C",[17],7.85%
same,"viability, T/C",[18],6.34%
same,"viability, T/C",[19],44.7%
same,"viability, T/C",[20],15.9%
same,"viability, T/C",[21],8.7%
same,"viability, T/C",[22],7.59%
same,"viability, T/C",[23],8.26%
same,"viability, T/C",[24],6%
same,"viability, T/C",[25],45.2%
same,"viability, T/C",[26],12.9%
same,"viability, T/C",[27],10%
same,"viability, T/C",[28],8.6%
same,"viability, T/C",[29],8.2%
same,"viability, T/C",[30],4.99%
same,"viability, T/C",[31],35.5%
same,"viability, T/C",[32],26.6%
same,"viability, T/C",[33],7.13%
same,"viability, T/C",[34],10.5%
same,"viability, T/C",[35],7.26%
same,"viability, T/C",[36],11.5%
CCc1cc2c(N3CCc4c(cc(Cn5ccnc5)cc4-c4cn(C)nc4C(F)(F)F)C3=O)ccnc2c(OC)n1 + Nc1ccc(C#CCN(C(=O)Cc2ncc(C(F)(F)F)cc2C(F)(F)F)c2ccc(F)cc2)nn1,IC50,second compound 0.0316 µM,> 10 µM
same,IC50,second compound 0.1 µM,4.78 µM
same,IC50,second compound 0.316 µM,7.55 µM
same,IC50,second compound 1 µM,8.72 µM
same,IC50,second compound 3.16 µM,> 10 µM
same,IC50,second compound 10 µM,5.44 µM
same,"viability, T/C",[1],89.5%
same,"viability, T/C",[2],124%
same,"viability, T/C",[3],110%
same,"viability, T/C",[4],70.7%
same,"viability, T/C",[5],63.5%
same,"viability, T/C",[6],38.4%
same,"viability, T/C",[7],88.5%
same,"viability, T/C",[8],111%
same,"viability, T/C",[9],101%
same,"viability, T/C",[10],87.6%
same,"viability, T/C",[11],54.9%
same,"viability, T/C",[12],41.8%
same,"viability, T/C",[13],120%
same,"viability, T/C",[14],103%
same,"viability, T/C",[15],87.1%
same,"viability, T/C",[16],88.9%
same,"viability, T/C",[17],86.1%
same,"viability, T/C",[18],38.1%
same,"viability, T/C",[19],127%
same,"viability, T/C",[20],109%
same,"viability, T/C",[21],100%
same,"viability, T/C",[22],79.1%
same,"viability, T/C",[23],63.9%
same,"viability, T/C",[24],48%
same,"viability, T/C",[25],95.7%
same,"viability, T/C",[26],108%
same,"viability, T/C",[27],113%
same,"viability, T/C",[28],79.8%
same,"viability, T/C",[29],64.3%
same,"viability, T/C",[30],50.9%
same,"viability, T/C",[31],102%
same,"viability, T/C",[32],83.9%
same,"viability, T/C",[33],83.7%
same,"viability, T/C",[34],90.5%
same,"viability, T/C",[35],62.6%
same,"viability, T/C",[36],35.9%
COc1cc2cc(C(=O)CCC(=O)O)sc2cc1OC + Nc1ccc(C#CCN(C(=O)Cc2ncc(C(F)(F)F)cc2C(F)(F)F)c2ccc(F)cc2)nn1,IC50,second compound 0.0316 µM,> 10 µM
same,IC50,second compound 0.1 µM,> 10 µM
same,IC50,second compound 0.316 µM,> 10 µM
same,IC50,second compound 1 µM,> 10 µM
same,IC50,second compound 3.16 µM,> 10 µM
same,IC50,second compound 10 µM,> 10 µM
same,"viability, T/C",[1],105%
same,"viability, T/C",[2],105%
same,"viability, T/C",[3],103%
same,"viability, T/C",[4],93.3%
same,"viability, T/C",[5],108%
same,"viability, T/C",[6],104%
same,"viability, T/C",[7],103%
same,"viability, T/C",[8],98.5%
same,"viability, T/C",[9],100%
same,"viability, T/C",[10],98.5%
same,"viability, T/C",[11],115%
same,"viability, T/C",[12],110%
same,"viability, T/C",[13],104%
same,"viability, T/C",[14],102%
same,"viability, T/C",[15],103%
same,"viability, T/C",[16],108%
same,"viability, T/C",[17],105%
same,"viability, T/C",[18],116%
same,"viability, T/C",[19],105%
same,"viability, T/C",[20],91.4%
same,"viability, T/C",[21],105%
same,"viability, T/C",[22],104%
same,"viability, T/C",[23],95.2%
same,"viability, T/C",[24],109%
same,"viability, T/C",[25],97%
same,"viability, T/C",[26],98.1%
same,"viability, T/C",[27],113%
same,"viability, T/C",[28],109%
same,"viability, T/C",[29],109%
same,"viability, T/C",[30],112%
same,"viability, T/C",[31],104%
same,"viability, T/C",[32],110%
same,"viability, T/C",[33],94.6%
same,"viability, T/C",[34],95%
same,"viability, T/C",[35],107%
same,"viability, T/C",[36],86.3%
O=C(Nc1ccc(O)c(NS(=O)(=O)c2ccc(F)cc2)c1)c1ccc(-c2ccccc2)cc1 + Nc1ccc(C#CCN(C(=O)Cc2ncc(C(F)(F)F)cc2C(F)(F)F)c2ccc(F)cc2)nn1,IC50,second compound 0.0316 µM,4.98 µM
same,IC50,second compound 0.1 µM,4.84 µM
same,IC50,second compound 0.316 µM,3.59 µM
same,IC50,second compound 1 µM,4.08 µM
same,IC50,second compound 3.16 µM,4.07 µM
same,IC50,second compound 10 µM,3.82 µM
same,"viability, T/C",[1],106%
same,"viability, T/C",[2],115%
same,"viability, T/C",[3],97%
same,"viability, T/C",[4],106%
same,"viability, T/C",[5],68.7%
same,"viability, T/C",[6],21.3%
same,"viability, T/C",[7],106%
same,"viability, T/C",[8],102%
same,"viability, T/C",[9],94%
same,"viability, T/C",[10],102%
same,"viability, T/C",[11],69.4%
same,"viability, T/C",[12],17.1%
same,"viability, T/C",[13],104%
same,"viability, T/C",[14],113%
same,"viability, T/C",[15],110%
same,"viability, T/C",[16],103%
same,"viability, T/C",[17],53.5%
same,"viability, T/C",[18],22.1%
same,"viability, T/C",[19],114%
same,"viability, T/C",[20],109%
same,"viability, T/C",[21],104%
same,"viability, T/C",[22],105%
same,"viability, T/C",[23],58.6%
same,"viability, T/C",[24],19.4%
same,"viability, T/C",[25],119%
same,"viability, T/C",[26],114%
same,"viability, T/C",[27],101%
same,"viability, T/C",[28],111%
same,"viability, T/C",[29],58.2%
same,"viability, T/C",[30],19.9%
same,"viability, T/C",[31],109%
same,"viability, T/C",[32],115%
same,"viability, T/C",[33],109%
same,"viability, T/C",[34],103%
same,"viability, T/C",[35],56.5%
same,"viability, T/C",[36],16.5%
